In ChEMBL document CHEMBL1201862, “PubChem BioAssay data set” (2004):
Blank lines part the entries; values can stand above or below the compound they belong to. The source made the active and inactive calls.

Assays:
[1] = Trypanosoma cruzi growth suppression in host cells – NIH3T3 host cells, beta-gal luminescence, confirmation (AID 2044); type: functional, cell-based;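 note: intracellular parasites grown in NIH/3T3 mouse fibroblasts as host cells; luminescent beta-galactosidase reporter signal from transgenic T. cruzi replicating inside host cells; inhibitors lower the luminescence signal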
[2] = molecular target: T1, Oxysterols receptor LXR-beta (Homo sapiens, UniProt P55055); type: functional, cell-based;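 note: Cell-based luminescence dose-response assay of agonist activity at LXR, run as a confirmatory counterscreen to a daf-12 agonist screen; HEK293 cells with Gal4-LXR fusion and GAL4-driven luciferase reporter; agonist potency from rising luciferase signal of a Gal4-LXR reporter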
T1 sequence (P55055 whole entry): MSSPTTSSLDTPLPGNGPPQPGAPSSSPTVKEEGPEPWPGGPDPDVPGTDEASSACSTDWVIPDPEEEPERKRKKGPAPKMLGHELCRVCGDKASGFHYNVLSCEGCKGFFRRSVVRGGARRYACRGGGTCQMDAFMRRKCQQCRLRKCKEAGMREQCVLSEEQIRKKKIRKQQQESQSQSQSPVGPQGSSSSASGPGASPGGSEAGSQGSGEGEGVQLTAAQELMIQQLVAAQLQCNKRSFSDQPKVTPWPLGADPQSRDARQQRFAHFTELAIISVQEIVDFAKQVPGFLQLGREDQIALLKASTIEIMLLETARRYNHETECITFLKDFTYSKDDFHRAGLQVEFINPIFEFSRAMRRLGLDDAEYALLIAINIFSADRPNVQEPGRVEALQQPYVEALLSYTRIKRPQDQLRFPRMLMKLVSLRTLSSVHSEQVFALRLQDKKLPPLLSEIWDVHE

[3] = NIH3T3 cell viability loss – ATP luminescence, mouse fibroblasts, counter-screen, dose response (AID 2010); type: functional, cell-based;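 note: cells exposed to compound for about 90 hours before reading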
Paired box protein Pax-8 = Paired box protein Pax-8 (Homo sapiens, UniProt Q06710); assay: PAX8 transcriptional activity inhibition in RMG-I – RMG-I cells, luciferase, cherry-pick, dose response (AID 687027); type: functional, cell-based;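 note: luciferase reporter driven by Pax8 target thyroperoxidase promoter measured by SteadyGlo luminescence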
Chain of Paired box protein Pax-8 (Q06710 whole entry): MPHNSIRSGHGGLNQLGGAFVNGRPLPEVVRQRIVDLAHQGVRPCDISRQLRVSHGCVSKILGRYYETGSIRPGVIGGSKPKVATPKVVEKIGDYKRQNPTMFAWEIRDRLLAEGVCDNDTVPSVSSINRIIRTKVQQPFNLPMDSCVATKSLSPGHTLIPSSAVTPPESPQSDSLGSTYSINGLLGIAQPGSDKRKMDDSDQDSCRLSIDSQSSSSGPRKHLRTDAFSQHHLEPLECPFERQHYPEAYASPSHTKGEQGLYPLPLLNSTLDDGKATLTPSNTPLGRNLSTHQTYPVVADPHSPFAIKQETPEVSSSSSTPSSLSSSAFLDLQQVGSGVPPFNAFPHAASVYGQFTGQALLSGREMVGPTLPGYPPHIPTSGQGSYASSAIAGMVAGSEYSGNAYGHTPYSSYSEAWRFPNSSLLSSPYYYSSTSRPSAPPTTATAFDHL

[4] = general cell-killing toxicity readout – plate reader, dry powder samples, cytotoxicity control for PAX8 inhibitor project, dose response (AID 743021); type: functional, cell-based
[5] = toxicity toward immortalized ovarian surface epithelium – cell-based, plate reader, dry powder samples, cytotoxicity control for PAX8 inhibitor project, dose response (AID 743045); type: functional
[6] = IGROV1 cell killing – plate reader, dry powder samples, PAX8 inhibitor project, dose response (AID 743043); type: functional, cell-based; details: IGROV-1
[7] = OVCAR-3 cell viability loss – plate reader, dry powder samples, PAX8 inhibitor project, dose response (AID 743044); type: functional, cell-based
[8] = reduced cellular PGC1a acetyl-lysine signal – cell-based, cherry-picked samples, dose response (AID 720514); type: functional;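 note: potency may reflect raised or lowered acetylation signal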
[9] = molecular target: NAD-dependent protein deacylase sirtuin-5, mitochondrial (Homo sapiens, UniProt Q9NXA8); assay: blockers of sirtuin-5 peptide desuccinylation – biochemical, fluorescence imaging, cherry-pick, set 6, dose response (AID 720597)
Chain of NAD-dependent protein deacylase sirtuin-5, mitochondrial (Q9NXA8 whole entry): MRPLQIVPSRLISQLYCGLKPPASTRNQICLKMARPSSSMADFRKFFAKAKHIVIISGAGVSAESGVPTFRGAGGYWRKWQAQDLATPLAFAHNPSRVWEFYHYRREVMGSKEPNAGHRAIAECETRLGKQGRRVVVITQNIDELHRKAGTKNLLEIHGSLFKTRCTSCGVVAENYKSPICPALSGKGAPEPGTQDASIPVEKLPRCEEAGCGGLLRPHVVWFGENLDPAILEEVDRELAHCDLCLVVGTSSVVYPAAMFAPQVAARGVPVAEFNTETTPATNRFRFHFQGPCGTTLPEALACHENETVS

[10] = MITF Orthogonal Assay: SK-MEL-5 CTG Assay Measured in Cell-Based System Using Plate Reader - 2084-02_Inhibitor_Dose_DryPowder_Activity_Set7.; type: functional
[11] = MITF: Counter assay: A375 proliferation Measured in Cell-Based System Using Plate Reader - 2084-03_Inhibitor_Dose_DryPowder_Activity_Set8.; type: functional; details: A-375
[12] = cytotoxicity in MITF-independent A375 cells – cell-based, CellTiter-Glo luminescence, dry powder, set 9, counter-screen for MITF modulator project, dose response (AID 651591); type: functional; details: A-375
[13] = inhibitors of TRPM1-promoter reporter in SK-MEL-5 – cell-based, luciferase, dry powder, set 9, MITF inhibitor project, dose response (AID 651588); type: functional
[14] = growth inhibition of SK-MEL-5 melanoma cells – cell-based, CellTiter-Glo luminescence, dry powder, set 8, orthogonal assay for MITF inhibitor project, dose response (AID 651586); type: functional
[15] = inhibitors of TRPM1-promoter reporter in SK-MEL-5 – cell-based, luciferase, dry powder, set 8, MITF inhibitor project, dose response (AID 624430); type: functional
[16] = growth inhibition of MALME3 cells – cell-based, CellTiter-Glo luminescence, dry powder, set 5, orthogonal assay for MITF inhibitor project, dose response (AID 651584); type: functional; details: MALME-3
[17] = MITF Orthogonal Assay: MALME3 CTG Assay Measured in Cell-Based System Using Plate Reader - 2084-04_Inhibitor_Dose_DryPowder_Activity_Set6.; type: functional; details: MALME-3

SMILES: NC(=S)N/N=C/c1ccc(-c2ccc(Cl)c(Cl)c2)o1
EC50 [1]: 0.983 µM (active) | EC50 [2]: > 67.5 µM (inactive) | EC50 (cells): > 67.5 µM (inactive) | EC50 [3]: > 60 µM (not active)

SMILES: O=C(Nc1cccc(F)c1)N1C[C@@H]2N[C@H](C1)[C@@H]2c1ccc(-c2ccc(F)cc2)cc1
AC50 (Paired box protein Pax-8): 19.5 µM (active) | AC50 [4]: 65.7 µM (active) | AC50 [5]: 34.3 µM (active) | AC50 [6]: 22.4 µM (active) | AC50 [7]: 17.7 µM (active) | AC50 [8]: 18.5 µM (active)

AC50 [9]: 26.3 µM (active)
SMILES: CC(C)CC#Cc1ccc2c(c1)O[C@@H](CN(C)S(=O)(=O)c1cccc(F)c1)[C@H](C)CN([C@H](C)CO)S2(=O)=O

SMILES: O=C1C(Nc2ccc(Cl)cc2)=C(N2CCCC2)C(=O)c2ccccc21
AC50 [10]: 1.77 µM (active) | AC50 [11]: 41.5 µM (active) | AC50 [12]: 50.9 µM (active) | AC50 [13]: 31.6 µM (active) | AC50 [14]: > 70 µM (inactive) | AC50 [15]: 3.48 µM (active) | AC50 [16]: 39.2 µM (active) | AC50 [17]: 39.2 µM (active)
